Test results published in patent US20120129811A1, “TRICYCLIC INHIBITORS OF PRO-MATRIX METALLOPROTEINASE ACTIVATION” (priority 2010, published 2012).
pIC50, pKd: −log10 of the molar value. Structures can show the parent of a compound that is named as a salt.

Experiments:
[1] = target: T1, proMMP9(67-444;ΔFnII) (SEQ ID NO:5) (Homo sapiens, UniProt P14780, DEL216-390); assay: ThermoFluor binding assay with proMMP9(67-444;ΔFnII)
T1 construct: start methionine (N); made in house; host or cells: E. coli BL21(DE3) RIL
T1 sequence (P14780 with tags, fused parts or gaps DEL216-390): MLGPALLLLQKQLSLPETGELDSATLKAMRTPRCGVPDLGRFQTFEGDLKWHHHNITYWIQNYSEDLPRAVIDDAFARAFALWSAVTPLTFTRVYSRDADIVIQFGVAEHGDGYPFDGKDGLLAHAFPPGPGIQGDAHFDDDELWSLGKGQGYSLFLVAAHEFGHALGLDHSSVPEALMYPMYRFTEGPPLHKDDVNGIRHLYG
Procedure: (§1) The ThermoFluor® (TF) assay is a 384-well plate-based binding assay that measures thermal stability of proteins (Biomol Screen 2001, 6, 429-40; Biochemistry 2005, 44, 5258-66). The experiments were carried out using instruments available from Johnson & Johnson Pharmaceutical Research & Development, LLC. TF dye used in all experiments was […] (1,8-ANS) (Invitrogen: A-47).
(§2) Compounds were arranged in a pre-dispensed plate (Greiner Bio-one: 781280), wherein compounds were serially diluted in 100% DMSO across 11 columns within a series. Columns 12 and 24 were used as DMSO reference and contained no compound. For multiple compound concentration-response experiments, the compound aliquots (50 nL) were robotically predispensed directly into black 384-well polypropylene PCR microplates (Abgene: TF-0384/k) using a Cartesian Hummingbird liquid handler (DigiLab, Holliston, Mass.). Following compound dispense, protein and dye solutions were added to achieve the final assay volume of 3 μL. The assay solutions were overlayed with 1 μL of silicone oil (Fluka, type DC 200: 85411) to prevent evaporation.
(§3) Assay plates were robotically loaded onto a thermostatically controlled PCR-type thermal block and then heated from 40 to 90° C. at a ramp-rate of 1° C./min for all experiments. Fluorescence was measured by continuous illumination with UV light (Hamamatsu LC6) supplied via fiber optics and filtered through a band-pass filter (380-400 nm; >60D cutoff). Fluorescence emission of the entire 384-well plate was detected by measuring light intensity using a CCD camera (Sensys, Roper Scientific) filtered to detect 500±25 nm, resulting in simultaneous and independent readings of all 384 wells. A single image with 20-sec exposure time was collected at each temperature, and the sum of the pixel intensity in a given area of the assay plate was recorded vs temperature and fit to standard equations to yield the Tm (J Biomol Screen 2001, 6, 429-40).
(§4) Thermodynamic parameters necessary for fitting compound binding for each proMMP were estimated by differential scanning calorimetry (DSC) and from ThermoFluor® data. The heat capacity of unfolding for each protein was estimated from the molecular weight and from ThermoFluor® dosing data.
ThermoFluor® with proMMP9(67-444;ΔFnM (SEQ ID NO:5)
The protein sample preparations had to include a desalting buffer exchange step via a PD-10 gravity column (GE Healthcare). The desalting buffer exchange was performed prior to diluting the protein to the final assay concentration of 3.5 μM proMMP9(67-444;ΔFnII) (SEQ ID NO:5). The concentration of proMMP9(67-444;ΔFnII) (SEQ ID NO:5) was determined spectrophotometrically based on a calculated extinction coefficient of ε280=33900 M^−1 cm^−1, a calculated molecular weight of 22.6 kDa, and calculated pI of 5.20. ThermoFluor® reference conditions were defined as follows: 80 μg/mL (3.5 μM) proMMP9(67-444;ΔFnII) (SEQ ID NO:5), 50 μM 1,8-ANS, pH 7.0 Buffer (50 mM HEPES pH 7.0, 100 mM NaCl, 0.001% Tween-20, 2.5 mM MgCl2, 300 μM CaCl2). The thermodynamic parameters for proMMP9(67-444;ΔFnII) (SEQ ID NO:5) are as follows: Tm (° C.)=63 (+/−0.1), ΔUH(Tm)(cal mol^−1)=105000(+/−5000), ΔUS(Tm) (cal mol^−1 K^−1)=450, ΔUCp (cal mol^−1 K^−1)=2000.

[2] = target: T2, full-length proMMP9(1-707) activation by catalytic MMP3 (Homo sapiens, UniProt P14780, R574P); assay: proMMP9/MMP3 P126 Activation Assay; format: biochemical
T2 construct: made in house; host or cells: proMMP9: HEK293 (secreted); MMP3: E. coli
Procedure: proMMP9/MMP3 P126 Activation Assay
The reaction volume was 50 μL. […] Reactivity of residual MMP3 towards P-126 substrate was minimal under these conditions.

[3] = target: T3, proMMP9(20-445;ΔFnII) (SEQ ID NO:6) (Homo sapiens, UniProt P14780, DEL216-390); assay: ThermoFluor binding assay with proMMP9(20-445;ΔFnII)
T3 construct: start methionine (N); made in house; host or cells: E. coli BL21(DE3) RIL
T3 sequence (P14780 with tags, fused parts or gaps DEL216-390): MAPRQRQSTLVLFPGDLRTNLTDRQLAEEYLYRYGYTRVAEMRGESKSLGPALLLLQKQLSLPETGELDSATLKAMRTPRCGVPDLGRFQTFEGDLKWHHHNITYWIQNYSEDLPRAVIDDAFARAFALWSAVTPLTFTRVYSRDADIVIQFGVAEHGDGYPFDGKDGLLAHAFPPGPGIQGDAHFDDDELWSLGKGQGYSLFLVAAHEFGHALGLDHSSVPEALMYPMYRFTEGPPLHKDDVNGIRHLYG
Procedure: as §1, §2, §3, §4
ThermoFluor® with proMMP9(20-445; ΔFnII (SEQ ID NO:6)
The protein sample preparations included a desalting buffer exchange step via a PD-10 gravity column (GE Healthcare). The desalting buffer exchange was performed prior to diluting the protein to the final assay concentration of 2.8 μM proMMP9(20-445;ΔFnII) (SEQ ID NO:6). The concentration of proMMP9(20-445;ΔFnII) (SEQ ID NO:6) was determined spectrophotometrically based on a calculated extinction coefficient of ε280=39880 M^−1 cm^−1, a calculated molecular weight of 28.2 kDa, and calculated pI of 5.5. ThermoFluor® reference conditions were define as follows: 80 μg/mL (2.8 μM) proMMP9(20-445;ΔFnII) (SEQ ID NO:6), 50 μM 1,8-ANS, pH 7.0 Buffer (50 mM HEPES pH 7.0, 100 mM NaCl, 0.001% Tween-20, 2.5 mM MgCl2, 300 μM CaCl2). The thermodynamic parameters for proMMP9(20-445;ΔFnII) (SEQ ID NO:6) are as follows: Tm (° C.)=72 (+/−0.1), ΔUH(Tm) (cal mol^−1)=160000(+/−5000), ΔUSTm (cal mol^−1 K^−1)=434, ΔUCp (cal mol^−1 K^−1)=2400.

T2 sequence (P14780 20-707 R574P): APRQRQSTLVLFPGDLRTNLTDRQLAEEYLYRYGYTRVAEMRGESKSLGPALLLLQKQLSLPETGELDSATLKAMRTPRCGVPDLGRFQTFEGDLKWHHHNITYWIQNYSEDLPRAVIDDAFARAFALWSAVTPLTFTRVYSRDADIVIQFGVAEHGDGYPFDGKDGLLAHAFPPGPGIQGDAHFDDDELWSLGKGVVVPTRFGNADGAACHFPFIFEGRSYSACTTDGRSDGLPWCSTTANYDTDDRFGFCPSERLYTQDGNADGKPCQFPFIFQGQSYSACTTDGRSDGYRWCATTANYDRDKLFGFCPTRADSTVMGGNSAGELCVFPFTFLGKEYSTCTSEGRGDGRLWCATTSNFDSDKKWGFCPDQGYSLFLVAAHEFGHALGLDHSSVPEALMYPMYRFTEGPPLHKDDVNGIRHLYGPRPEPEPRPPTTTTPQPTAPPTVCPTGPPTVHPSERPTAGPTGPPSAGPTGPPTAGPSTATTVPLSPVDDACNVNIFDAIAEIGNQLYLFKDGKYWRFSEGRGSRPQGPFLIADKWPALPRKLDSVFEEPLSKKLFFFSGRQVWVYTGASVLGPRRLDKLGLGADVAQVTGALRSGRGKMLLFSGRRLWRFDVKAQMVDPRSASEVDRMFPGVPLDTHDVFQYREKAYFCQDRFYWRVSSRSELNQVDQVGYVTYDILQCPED

SMILES	pKd [1]	pIC50 [2]	pKd [3]
CCOc1ccccc1Nc1nc2c(ccc3sc(N)nc32)s1 [Example 3, N^7-(2-Ethoxy-phenyl)-benzo[2,1-d;3,4-d′]bisthiazole-2,7-diamine.TFA]	5.80	5.85	5.49
CCOc1ccccc1Nc1nc2c(ccc3sc(Nc4ccccc4OCC)nc32)s1 [Example 4, N,N′-Bis-(2-ethoxy-phenyl)-benzo[2,1-d;3,4-d′]bisthiazole-2,7-diamine.TFA]	4.52	5.33	4.17
COc1ccc(Cl)cc1Nc1nc2c(ccc3nc(N)sc32)s1 [Example 7, N^7-(5-Chloro-2-methoxy-phenyl)-benzo[1,2-d;3,4-d′]-bisthiazole-2,7-diamine.TFA]	6.70	5.77	5.64
Cc1nc2ccc3sc(Nc4ccccc4OC(C)C)nc3c2s1 [Example 17, (2-Isopropoxy-phenyl)-(2-methyl-benzo[1,2-d;3,4-d′]-bisthiazol-7-yl)-amine.HCl]	< 4.02	5.24	< 4.02
Cc1[nH]c2c(ccc3sc(Nc4cc(C(N)=O)ccc4OC(C)C)nc32)c1C [Example 45, 3-(6,7-Dimethyl-8H-3-thia-1,8-diaza-as-indacen-2-ylamino)-4-isopropoxy-benzamide.HCl]	5.48	5.41	6.11
COc1ccccc1Nc1nc2c(ccc3c2ncn3C)s1 [Example 46, (2-Methoxy-phenyl)-(6-methyl-6H-imidazo[4′,5′:3,4]benzo[2,1-d]thiazol-2-yl)-amine.HCl]	6.62	6.82	6.19
CC(C)Oc1ccc(C(N)=O)cc1Nc1nc2c(ccc3[nH]nnc32)s1 [Example 47, 4-Isopropoxy-3-(3H-thiazolo[4′,5′:3,4]benzo[1,2-d][1,2,3]triazol-7-ylamino)-benzamide.HCl]	5.80	6.22	6.00
COc1c(F)cc(C(N)=O)cc1Nc1nc2c(ccc3c2ncn3C)s1 [Example 48, 3-Fluoro-4-methoxy-5-(6-methyl-6H-imidazo[4′,5′:3,4]benzo[2,1-d]thiazol-2-ylamino)-benzamide.HCl]	6.09	6.44	5.72
COc1ccc(NC(C)=O)cc1Nc1nc2c(ccc3c2ncn3C)s1 [Example 49, N-[4-Methoxy-3-(6-methyl-6H-imidazo[4′,5′:3,4]benzo[2,1-d]thiazol-2-ylamino)-phenyl]-acetamide.HCl]	5.80	5.89	5.34
COc1ccc(C(F)(F)F)cc1Nc1nc2c(ccc3c2ncn3C)s1 [Example 50, (2-Methoxy-5-trifluoromethyl-phenyl)-(6-methyl-6H-imidazo[4′,5′: 3,4]benzo[2,1-d]thiazol-2-yl)-amine.HCl]	5.82	5.96	5.52
COc1c(Nc2nc3c(ccc4c3ncn4C)s2)cc(C(N)=O)cc1C(F)(F)F [Example 53, 4-Methoxy-3-(6-methyl-6H-imidazo[4′,5′:3,4]benzo[2,1-d]thiazol-2-ylamino)-5-trifluoromethyl-benzamide.HCl]	5.21	5.38	5.40
COc1cc([N+](=O)[O-])ccc1Nc1nc2c(ccc3c2ncn3C)s1 [Example 83, (2-Methoxy-4-nitro-phenyl)-(6-methyl-6H-imidazo[4′,5′:3,4]benzo[2,1-d]thiazol-2-yl)-amine.HCl]	–	~7.00	–
COc1ccc(C#N)cc1Nc1nc2c(ccc3ocnc32)s1 [Example 84, 4-Methoxy-3-(thiazolo[4′,5′:3,4]-benzo[2,1-d]oxazol-7-ylamino)-benzonitrile]	–	6.12	–

Second part, the molecule after the results:

pKd [1]	pIC50 [2]	pKd [3]	SMILES
–	5.41	–	CC(C)Cc1ccc(C(N)=O)cc1Nc1nc2c(ccc3c2ncn3C)s1 [Example 88, 4-Isobutyl-3-(6-methyl-6H-imidazo[4′,5′:3,4]-benzo[2,1-d]thiazol-2-ylamino)-benzamide]
–	5.77	4.12	COc1ccccc1Nc1nc2c(ccc3cnccc32)s1 [Example 100, (2-Methoxy-phenyl)-thiazolo[4,5-f]isoquinolin-2-yl-amine.TFA]
5.21	–	5.11	COc1ccc(S(N)(=O)=O)cc1Nc1nc2c(ccc3cnccc32)s1 [Example 104, 4-Methoxy-3-(thiazolo[4,5-f]isoquinolin-2-ylamino)-benzenesulfonamide.TFA]
–	< 4.70	< 4.02	COc1ccc(C#N)cc1Nc1nc2c(ccc3cnccc32)s1 [Example 151, 4-Methoxy-3-(thiazolo[4,5-f]isoquinolin-2-ylamino)-benzonitrile.TFA]
–	6.26	–	CCn1c(C)nc2ccc3sc(Nc4cnccc4OC)nc3c21 [Example 152, 8-Ethyl-N-(4-methoxypyridin-3-yl)-7-methyl-8H-imidazo[4′,5′:5,6]benzo[1,2-d]thiazol-2-amine]
–	6.47	6.32	CC(C)Oc1ccc(S(N)(=O)=O)cc1Nc1nc2c(ccc3c2ccn3C)s1 [Example 161, 4-isopropoxy-3-((6-methyl-6H-thiazolo[4,5-e]indol-2-yl)amino)benzenesulfonamide.HCl]
–	6.19	6.37	Cn1ccc2c3nc(Nc4cc(S(N)(=O)=O)ccc4OC(F)(F)F)sc3ccc21 [Example 162, 3-((6-methyl-6H-thiazolo[4,5-e]indol-2-yl)amino)-4-(trifluoromethoxy)benzenesulfonamide.HCl]
–	6.96	6.38	COc1ccc(S(C)(=O)=O)cc1Nc1nc2c(ccc3c2ccn3C)s1 [Example 163, N-(2-methoxy-5-(methylsulfonyl)phenyl)-6-methyl-6H-thiazolo[4,5-e]indol-2-amine.HCl]
